The target of assay [1] is T1, DNA-PK (Homo sapiens, UniProt P78527).
T1 construct: DNA-PK was purified from HeLa cells; endogenous in cells; host or cells: HeLa S3 cells; the endogenous enzyme was purified in house by chromatography
Description: Poorer substrate peptides added to (SEQ ID NO: 8) phosphorylation assays. The conditions noted are these: peptide up to 250 μM; (SEQ ID NO: 8) at 100 μM. Format: biochemical.

Assay [2] concerns DNA-PK. Description: Phosphorylation of synthetic peptides in crude cell extracts (L 929). The format is biochemical, mouse. The conditions noted are these: peptide 200 μM, 10 min 30° C. As for the experimental part: To examine cells for DNA-PK content, extracts from HeLa, T98G human glioblastoma, and mouse L 929 cells were prepared by freeze-thaw lysis of cells harvested from five nearly confluent 9-cm-diameter plates as described in Example 1 and by Lees-Miller, et al. J. Biol. Chem., 264:2431-2437 (1989). T98G (ATCC CRL 1690) is a human glioblastoma cell line; L-929 (ATCC CCL 1) was derived from connective tissue of the NCTC 2071 mouse. Based on earlier work with natural protein substrates, it was expected that extracts of HeLa and T98G cells would contain a significant amount of DNA-PK activity while the extracts of mouse L 929 would contain little, if any, DNA-PK activity. Lysates in low-salt buffer were centrifuged at 10,000×g, to give a supernatant fraction (designated S10) and pellets (designated P10). The pellets were washed by resuspension in a high salt buffer (0.5 M KCl, 25 mM N-2-hydroxyethylpiperazine-N′-2-ethanesulfonic acid (HEPES; pH 7.5), 10 mM MgCl2, 1 mM dithiothreitol) and were sonicated. The sonicated suspension was centrifuged at 10,000×g for 10 min to give a second supernatant fraction (designated P10S), which was diluted with buffer lacking KCl to give a volume equal to that of the original supernatant (S10). Protein concentrations, determined using the Bio-Rad dye-binding assay, were as follows: HeLa S10, 3 mg/ml; HeLa P10S, 1 mg/ml; T98G S10, 3.5 mg/ml;,T98G P10S, 1 mg/ml; L-929 S10, 1 mg/ml; and L-929 P10S, 0.3 mg/ml. These extracts were assayed for the ability to phosphorylate (SEQ ID NOS: 11 and 20) with and without added calf thymus DNA.

The test system of assay [3] is DNA-PK. Briefly: DNA-PK activity in extracts of rat cells. The conditions noted are these: Rat REF, peptide 0.2 mM; for Specific Activity + DNA: + calf thymus DNA 10 μg/ml; for Specific Activity − DNA: no added DNA. Format: biochemical. The method, then: (§1) Extracts of additional primate and rodent cells were tested for the presence of DNA-PK activity in accordance with the method of the present invention. The DNA-PK activity was determined using the methods described in Examples 1, 4 and 5 for seven human cell lines, two African green monkey kidney lines, and six rodent cell lines.
(§2) Extracts were prepared essentially as described in Example 10. Cells were lysed by freezing and thawing in hypotonic buffer; soluble (S10) “cytoplasmic” and insoluble in (P10) “nuclear” fractions were made by centrifuging lysates at 10,000×g for 10 min. The insoluble fraction was extracted with buffer containing 0.5 M KCl, which releases any DNA-PK that is bound to DNA. After centrifugation of the salt-washed pellet fraction, which removed the remaining insoluble material, the salt extract (P10S) was diluted and assayed as previously described.
(§3) Protein concentrations, determined using the Bio-Rad dye binding assay, were between 0.3 and 6 mg/ml. Extracts were incubated at 30° C. for 10 min with each peptide at 0.2 mM in the absence of added DNA (−DNA) or with 10 μg/ml calf thymus DNA (+DNA). After incubation the reaction mixtures were acidified with an equal volume of 30% acetic acid and spotted on to Whatman P-81 phosphocellulose paper (Whatman, Inc., Clifton, N.J.). The filters then were washed extensively in 15% acetic acid before the adsorbed radioactivity was quantitated as described in Example 5.
(§4) The amount of phosphate incorporated was calculated from the specific activity of the ATP. The rate of phosphate incorporation into the Ser-Gln-Glu peptide (Table 1) (SEQ ID NO: 11) in the presence of calf thymus DNA was approximately linear throughout the 10 minute reaction incubation period. Parallel assays were performed without added peptide, and these background values were subtracted to produce the activities that are shown in Table 3. Background values varied but, in all cases, were less than 0.2 nmol/min/mg (a few percent of the activity present in human cells). The specific activities were calculated from the total activity in the two fractions divided by the total protein in the two fractions. The percent of total DNA-PK activity in the S10 and P10S fractions was determined with peptide (SEQ ID NO: 11) in the presence of added calf thymus DNA. Extracts without substantial DNA-PK activity were examined for their ability to inhibit purified DNA-PK. Inhibitory activity was not detected.

Assay [4] deals with DNA-PK. Description: DNA-PK activity in extracts of monkey cell lines. Particulars: peptide 0.2 mM; for Specific Activity + DNA: + calf thymus DNA 10 μg/ml; for Specific Activity − DNA: no added DNA. Format: biochemical, African green monkey. As for the experimental part:
as §1, §2, §3, §4

No end group written: not given here.

Turning to EPPLSEQAFADLWKK [SEQ ID NO: 20], the “inhibition of phosphorylation of (SEQ ID NO: 8)” value with DNA-PK [1] is on record as “None of these peptides significantly inhibited the phosphorylation”. In addition, the “PO4 incorporated + DNA” value was 0.0 nmol/min/ml of extract with DNA-PK [2] (P10S, + calf thymus DNA 10 μg/ml) and 0.0 nmol/min/ml of extract in the assay with DNA-PK [2] (S10, + calf thymus DNA 10 μg/ml). In addition, the “PO4 incorporated − DNA” value is given as 0.0 nmol/min/ml of extract in the assay on DNA-PK [2] (P10S, without DNA) and 0.0 nmol/min/ml of extract with DNA-PK [2] (S10, without DNA). Besides, the “Specific Activity + DNA” value in the assay with DNA-PK [3] (P10S) was found to be 0.0 nmol PO4/min/mg protein; with DNA-PK [3] (S10), 0.0 nmol PO4/min/mg protein; with DNA-PK [4] (Monkey COS-1, P10S) it was 0.24 nmol PO4/min/mg protein; in the assay with DNA-PK [4] (Monkey COS-1, S10) it was 0.02 nmol PO4/min/mg protein; with DNA-PK [4] (Monkey CV-1, P10S), 0.08 nmol PO4/min/mg protein; in the assay on DNA-PK [4] (Monkey CV-1, S10), 0.05 nmol PO4/min/mg protein. In addition, the “Specific Activity − DNA” value with DNA-PK [3] (P10S) amounted to 0.03 nmol PO4/min/mg protein; with DNA-PK [3] (S10), 0.02 nmol PO4/min/mg protein; in the assay on DNA-PK [4] (Monkey COS-1, P10S), 0.0 nmol PO4/min/mg protein; in the assay on DNA-PK [4] (Monkey COS-1, S10), 0.0 nmol PO4/min/mg protein; in the assay with DNA-PK [4] (Monkey CV-1, P10S), 0.08 nmol PO4/min/mg protein; with DNA-PK [4] (Monkey CV-1, S10), 0.0 nmol PO4/min/mg protein.

(Values after patent US6803203B1, “DNA-PK assay” (Brookhaven Science Associates, priority 1993, dated 2004).)
